Reference: US20190374509A1, “Methods of Using Metamizole for Treatment of Pyrexia in Equines” (Kindred Biosciences, Inc., priority 2018, published 2019)

Columns and labels:
horses [1] = test: Coagulation effects study, IV BID or TID for 9 days: clinical signs; format: in vivo
Protocol: The purpose of this study was to evaluate the effects of metamizole on coagulation parameters and pharmacokinetic parameters when administered intravenously to horses for 9 days at doses of 0 mg/kg (0×), 30 mg/kg (1×), 60 mg/kg (2×), and 90 mg/kg (3×) of body weight. Doses of 0×, 1×, 2×, and 3× were administered twice daily (BID), every 12 hours±120 min. Doses of 1× and 2× were administered three times daily (TID), every 8 hours±120 min. Metamizole plasma concentrations were assessed in the 1×BID, 3×BID, 1×TID, and 2×TID treatments groups to evaluate for evidence of accumulation.
The investigational drug was a sterile injectable formulation of dipyrone (Zimeta®, Corden Pharma, Caponago, Italy) (500 mg/mL) in 100 mL glass bottles. The placebo was sterile injectable saline (0.9% Saline, Nova-Tech Inc, Grand Island, NE) (0.9% sodium chloride) in 500 mL plastic bottles labeled for veterinary use. Dipyrone treatment groups were 30 mg/kg/dose (1×) administered twice daily (BID), 1× administered three times daily (TID), 60 mg/kg/dose (2×) BID, 2×TID, and 90 mg/kg/dose (3×) BID. Placebo treatment group, (0×) BID, were saline administered at a volume to match the 1× dipyrone group. The dose was calculated based on body weight and administered for nine consecutive days (Days 1-9). Due to the large volume of the injection at the higher test intervals, treatment was administered via indwelling intravenous catheters. Intravenous catheters were placed using standard techniques. Horses were sedated with xylazine (XylaMed™, VetOne, MWI, Boise, Id.) (0.6 mg/kg, IV) and the skin was desensitized with subcutaneous injection of lidocaine (Lidocaine 2%, VetOne, MWI, Boise, Id.). Intravenous catheters were replaced at the discretion of the study director and were maintained with heparinized saline flush prior to, and following, dose administration.
Horses were acclimated to the facility for 14 days prior to start of the treatment phase. […] On Day −1, thirty-two horses were randomized by the study statistician and moved to their assigned pens. On Day −1 (baseline), Day 4, and Day 10 horses had blood collected for a coagulation panel. A physical exam was performed prior to study start and on Day 10.

horses [2] = test: Pyrexia efficacy Study 1 (unmasked, single IV dose, rectal temperature); format: in vivo; details: 30 mg/kg IV single dose; for Mean (± SD) temperature change from baseline: horses with rectal temperature ≥102.0° F.
Protocol: Study 1: The unmasked laboratory study was conducted at a clinical research organization in the United States. Institutional Animal Care and Use Committee (IACUC) approval was obtained prior to the conduct of the study. Horses one year of age or older were comingled by the Investigator in order to facilitate transmission of respiratory infections. Horses were monitored by the study staff for elevation of rectal temperature. All horses received treatment once the rectal temperature was ≥102.0° F. A single dose of dipyrone was administered intravenously (30 mg/kg IV). Rectal temperature was monitored 1, 2, 3, and 6 hours post-treatment administration.
In both studies horses were assessed daily to determine overall safety. Medications that could have impacted the temperature or the underlying cause of the disease were not permitted in either study; however, horses in both studies were eligible for rescue at the discretion of the Investigator. Following completion of the study, the Investigator treated the horses with standard of care for the type, and severity, of clinical signs. Statistical analysis was performed with the Wilcoxon rank sum test (SAS®, SAS Institute, Cary N.C., version 9.4).

[3] = 1X BID, 30 mg/kg IV twice daily, n = 6
[4] = 1X TID, 30 mg/kg IV three times daily, n = 4
[5] = 2X BID, 60 mg/kg IV twice daily, n = 6
[6] = 2X TID, 60 mg/kg IV three times daily, n = 6
[7] = 3X BID, 90 mg/kg IV twice daily, n = 6

Compound: Cc1c(N(C)CS(=O)(=O)O)c(=O)n(-c2ccccc2)n1C [dipyrone, [(2,3-dihydro-1,5-dimethyl-3-oxo-2-phenyl-1H-pyrazol-4-yl)methylamino] methanesulfonic acid]
- Depression, number of horses (horses [1]; [3]): 0
- Dermatitis, number of horses (horses [1]; [3]): 0
- Minor gastrointestinal signs or inappetence, number of horses (horses [1]; [3]): 2
- Minor respiratory signs (nasal discharge and or cough), number of horses (horses [1]; [3]): 1
- Ocular discharge, number of horses (horses [1]; [3]): 0
- Phlebitis and other catheter-related changes to jugular vein, number of horses (horses [1]; [3]): 2
- Suture site abscesses, number of horses (horses [1]; [3]): 1
- Depression, number of horses (horses [1]; [4]): 0
- Dermatitis, number of horses (horses [1]; [4]): 0
- Minor gastrointestinal signs or inappetence, number of horses (horses [1]; [4]): 1
- Minor respiratory signs (nasal discharge and or cough), number of horses (horses [1]; [4]): 0
- Ocular discharge, number of horses (horses [1]; [4]): 0
- Phlebitis and other catheter-related changes to jugular vein, number of horses (horses [1]; [4]): 1
- Suture site abscesses, number of horses (horses [1]; [4]): 0
- Depression, number of horses (horses [1]; [5]): 0
- Dermatitis, number of horses (horses [1]; [5]): 0
- Minor gastrointestinal signs or inappetence, number of horses (horses [1]; [5]): 2
- Minor respiratory signs (nasal discharge and or cough), number of horses (horses [1]; [5]): 0
- Ocular discharge, number of horses (horses [1]; [5]): 1
- Phlebitis and other catheter-related changes to jugular vein, number of horses (horses [1]; [5]): 3
- Suture site abscesses, number of horses (horses [1]; [5]): 0
- Depression, number of horses (horses [1]; [6]): 1
- Dermatitis, number of horses (horses [1]; [6]): 0
- Minor gastrointestinal signs or inappetence, number of horses (horses [1]; [6]): 2
- Minor respiratory signs (nasal discharge and or cough), number of horses (horses [1]; [6]): 0
- Ocular discharge, number of horses (horses [1]; [6]): 0
- Phlebitis and other catheter-related changes to jugular vein, number of horses (horses [1]; [6]): 2
- Suture site abscesses, number of horses (horses [1]; [6]): 1
- Depression, number of horses (horses [1]; [7]): 0
- Dermatitis, number of horses (horses [1]; [7]): 1
- Minor gastrointestinal signs or inappetence, number of horses (horses [1]; [7]): 1
- Minor respiratory signs (nasal discharge and or cough), number of horses (horses [1]; [7]): 1
- Ocular discharge, number of horses (horses [1]; [7]): 0
- Phlebitis and other catheter-related changes to jugular vein, number of horses (horses [1]; [7]): 3
- Suture site abscesses, number of horses (horses [1]; [7]): 0
- Abnormal clinical signs in the treatment period (horses [1]; all treatment groups (30-90 mg/kg IV BID or TID, 9 days)): none were considered treatment related
- Mean (± SD) temperature change from baseline (horses [2]; Hour 1): −1.1 (± 0.5) ° F.
- Mean (± SD) temperature change from baseline (horses [2]; Hour 2): −1.4 (± 1.0) ° F.
- Mean (± SD) temperature change from baseline (horses [2]; Hour 3): −1.9 (± 1.0) ° F.
- Mean (± SD) temperature change from baseline (horses [2]; Hour 6): −1.9 (± 1.1) ° F.
- Fever reduction post-dose (horses [2]; Hours 1, 2, 3, 6): significantly reduced fever at all measured timepoints post-dose
- Horses with reduced fever (>1° F.) (horses [2]; eight horses, Hour 6): 87.5%
- Horses with return to normothermia (≥2° F.) (horses [2]; eight horses, Hour 6): 75%
